Eight compounds from paper PMC12392461, “Beyond Estrogenicity: A Comparative Assessment of Bisphenol A and Its Alternatives in In Vitro Assays Questions Safety of Replacements” (Environmental Science & Technology, 2025) can be followed below.

Like-named read-outs stand apart in the source and are kept apart here. A value given as a limit tells only on which side of the number the result lay.

Data set [1] deals with Antioxidant response element. Briefly: MitoOxTox: oxidative stress response in AREc32. The conditions noted are these: for EC10, linear / logEC10: Bioassay ARE, dosing range all; for EC10, linear: linear model fit; for logEC10: log-logistic model fit. An excerpt: (§1) All bioassay media components and the ERα-UAS-bla GripTite and PPARγ-UAS-bla cells were obtained from Thermo Fisher Scientific (Waltham, MA, USA). AREc32 reporter gene cells based on MCF7 were provided by C. Roland Wolf (Cancer Research UK); AhR CALUX cells (H4L7.5c2 derived from H4IIe) were provided by Michael Denison (UC Davis, USA); and SH-SY5Y cells were purchased from Sigma-Aldrich.
(§2) Cell culture conditions and bioassay protocols including response detection are provided in Text S2.1–2.4 and Table S3. − Cell viability was determined from cell confluency using an IncuCyte S3 Live-Cell Analysis System (Sartorius AG, Essen, Germany) before and after exposure, except for SH-SY5Y cells (live–dead staining with Nuclear Green LcS1 and propidium iodide, Abcam, UK). For metabolic activation experiments, cell viability was assessed using the ToxBLAzer DualScreen Kit (Thermo Fisher Scientific) to capture the remaining toxicity in ERα-UAS-bla GripTite after treatment with the aCYP catalyst (details in Text S2.4).
(§3) For ARE, the concentration that triggered an induction ratio of 1.5 (ECIR1.5) was used as the benchmark value, as detailed in Text S2.5. IC10 values also served as a threshold for data analysis in all assays; only concentrations below IC10 were considered when deriving EC10 or ECIR1.5. […]
(§4) S2: Cell culture and bioassays
(§5) S2.1: Cell Culturing Conditions
(§6) All suppliers and sources are given in detail in SI-Excel S3. The bioassay media for the different assays were prepared as follows: Assay medium for ER alpha-UAS-bla GripTite (ERα) and PPAR gamma-UAS-bla 293H (PPARγ) was prepared with 98% Opti-MEM, supplemented with 2% charcoal-stripped FBS, and 100 U/mL penicillin-streptomycin. MitoOxTox and AhR assay medium was comprised of 90% DMEM with GlutaMAX, supplemented with 10% FBS, and 100 U/mL penicillin-streptomycin. Neurotoxicity assay medium consisted of the neurobasal […]
(§7) (1 picture or pasted object on this page, not shown here) […]
(§8) medium, supplemented with 2% B-27 Supplement and 2 mM GlutaMAX Supplement. SH - SY5Y cells were differentiated with 10 µM all-trans retinoic acid prior to the assay.
(§9) S2.2: Cell Seeding and Incubation. For all bioassays, cell suspensions in the respective assay medium were dispensed into each well of 384-well plates using a MultiFlo Dispenser (Biotek, (now Agilent), Winooski, VT, U.S.). After seeding, the plates were incubated at 37° C and 5% CO₂ for […]. The final cell densities and plate types were as follows: Black poly-D-lysine coated 384-well plates (Product No. 354663, Corning Inc., NYC, U.S.) were used for PPARγ:
(§10) 6500 cells/well, ERα: 5000 cells/well. White 384-well plates with a clear bottom (Product No.
(§11) 781098, Greiner, Kremsmünster, Austria) were utilized for the MitoOxTox assay: 2650

For another data set, the system named is SH-SY5Y cells. Briefly: cells. The conditions noted are these: for EC10: Homo sapiens, SH-SY5Y; for EC10, linear / logEC10: NOI bioassay, dosing range all; for EC10, linear: linear model; for logEC10: log-logistic model.
Text: as §1, §2, §3, §4, §5, §6, §7, §8, §9, §10, §11

The subject of data set [2] is ERα-UAS-bla GripTite cells. On the procedure:
as §2, with “S2.4). […]” for “S2.4).”
The TK-Ratio method was used to evaluate the impact of abiotic CYP oxidation on the potency of tested compounds. […]
For experiments with the preceding aCYP activation, ERα cell viability was additionally calculated from the readout of the ToxBLAzer reagent. The ToxBLAzer assay was conducted following the manufacturer's instructions (Thermo Fisher, Waltham, MA, U.S.).13 Fluorescence intensity was recorded at the start of the assay ( Fwavelength(0h)) and after a 2-hour incubation at […]
eq. S11 for normalization.
Cell viability = F665nm(2h, sample)-F665nm(0h, average cell-free) (S11) F665nm(2h, average unexposed)-F665nm(0h, average cell-free) […]
the specific endpoint to avoid artifacts from cytotoxicity burst. 15
S2.5: Concentration-response curves (CRCs)
To avoid bias from cytotoxicity burst at higher concentrations, all concentrations exceeding the IC10 for cytotoxicity were excluded in the CRC modeling of effects but otherwise cytotoxicity and effects were fitted with the same model equations (response stands for cytotoxicity or effect). For ERα, AhR, ARE and PPARγ preferably a linear model was fitted to the linear portion of CRC up to maximum 30% effect (eq. S12),16 but in some cases it was necessary to choose a sigmoidal log-concentration-response model, specifically a log-logistic model (eq. S13), to derive effect concentrations and cytotoxicity. […]
This was done using the
AutomatedBioassayScreening19 published by Braun et al.,20 which also included an algorithm to choose the best model between eq. S12 and eq. S13.
Response (%) = slope × C (S12) […]
logEC =logEC − 1 ∙log (max−min − 100%) (S14)

The mark [3] stands for this setting: Arec32, read-out: EC10, linear transformed.
Setting [4] is: read-out: EC10, linear transformed.
The mark [5] stands for this setting: Table S10, TKcytotoxicity-Ratio.
Where [6] appears, read: Table S11, TKcytotoxicity-Ratio.

For the compound `O=S(=O)(c1ccc(O)cc1)c1ccccc1O` [2,4-BPS, 2,4'-Dihydroxydiphenyl sulfone], the EC10 in data set [1] (setting [3]) amounted to 88700 µM; in the data set with SH-SY5Y cells (setting [4]), 0.000871 M. Moreover, the “EC10, linear” value (in data set [1]; in the data set with SH-SY5Y cells) was “no effect” throughout. For the same compound, the logEC10 entry (in data set [1]; in the data set on SH-SY5Y cells) was “no effect” each time. The same compound showed a TKcytotoxicity in data set [2] (human) of 1.61.
Turning to `O=C(OCc1ccccc1)c1ccc(O)cc1` [BzPB, Benzyl 4-hydroxybenzoate], the EC10 in data set [1] (Arec32, read-out: EC10, linear) is 32.1 µM; in data set [1] (setting [3]), 16.7 µM; in data set [1] (Arec32, read-out: logEC10) it was 19.5 µM; in the data set with SH-SY5Y cells (setting [4]), 0.000412 M. In addition, the “Specificity ratio (SRbaseline) SRARE” value in data set [1] (against baseline cytotoxicity) was 1.73. Besides, the “Specificity ratio (SRcytotoxicity) SRARE” value in data set [1] (against experimental cytotoxicity) turned out to be 4.62. For the same compound, in data set [1] (effect, induction ratio 1.5), the “ECIR1.5, ARE” value was determined as 19.4 µM. For the same compound, in data set [1] (induction ratio 1.5), the “ECIR1.5, ARE (M)” value is on record as 1.94 × 10^–5 M. Moreover, in data set [1] (input of the ToxPi score, values up to 1.00), the “log(1/EC10) AREc32” value is 1.00. Further, the “SR (ARE)” value in data set [1] (specificity ratio) is reported as under 10. Also, in the data set with SH-SY5Y cells, the “EC10, linear” value is on record as “no effect”. Further, in the data set on SH-SY5Y cells, the logEC10 result was “no effect”. The TKcytotoxicity in data set [2] (setting [5]) is on record as 1.10.
As to `CC(c1ccc(O)cc1)c1ccc(O)cc1` [BPE, 4,4′-Ethylidenbisphenol], the EC10 in data set [1] (setting [3]) is 3720 µM; with SH-SY5Y cells (read-out: EC10, NOI), 0.000114 M; with SH-SY5Y cells (read-out: EC10, NOI (M)) it was 0.000114 M; with SH-SY5Y cells (read-out: EC10, linear), 0.000136 M; with SH-SY5Y cells (setting [4]), 0.000235 M; in the data set on SH-SY5Y cells (read-out: logEC10), 0.000115 M. In data set [1], the “EC10, linear” value is “no effect”. Also, in data set [1], the logEC10 entry is listed as “masked by cytotoxicity”. Further, the TKcytotoxicity in data set [2] (setting [5]) is given as 0.63.
On to `C=CCOc1ccc(S(=O)(=O)c2ccc(O)cc2)cc1` [BPS-MAE, 4-[[4-(Allyloxy)phenyl]sulfonyl]phenol], for which, in data set [1], the “EC10, linear” value is given as “no effect”. Moreover, in data set [1], the logEC10 entry was “no effect”. The EC10 was 2.52e-05 M with SH-SY5Y cells (read-out: EC10, NOI); 2.52e-05 M in the data set with SH-SY5Y cells (read-out: EC10, NOI (M)); 6.61e-05 M in the data set on SH-SY5Y cells (read-out: EC10, linear); 2.55e-05 M in the data set on SH-SY5Y cells (setting [4]); 2.51e-05 M in the data set on SH-SY5Y cells (read-out: logEC10). The TKcytotoxicity in data set [2] (setting [5]) is 2.91.
As to `CC(c1ccccc1)(c1ccc(O)cc1)c1ccc(O)cc1` [BPAP, 4,4'-(1-Phenylethylidene)bisphenol], the “EC10, linear” value in data set [1] is given as “no effect”. Also, in data set [1], the logEC10 entry is on record as “no effect”. Also, the EC10 was 5.12e-05 M with SH-SY5Y cells (read-out: EC10, NOI); 5.12e-05 M in the data set on SH-SY5Y cells (read-out: EC10, NOI (M)); 4.83e-05 M in the data set on SH-SY5Y cells (read-out: EC10, linear); 5.09e-05 M with SH-SY5Y cells (setting [4]); 5.13e-05 M in the data set on SH-SY5Y cells (read-out: logEC10). In addition, the TKcytotoxicity in data set [2] (setting [6]) was 0.76.
For the compound `COC(=O)C(c1ccc(O)cc1)c1ccc(O)cc1` [Bz, Methyl bis(4-hydroxyphenyl)acetate], the results for the EC10 (in data set [1] (setting [3]); in the data set with SH-SY5Y cells (setting [4]); in the data set on SH-SY5Y cells (read-out: logEC10)) were 2200 µM, 0.0004 M and 0.00038 M, respectively. Further, the “EC10, linear” value (in data set [1]; in the data set on SH-SY5Y cells) was “no effect” each time. For the same compound, the logEC10 result in data set [1] is “no effect”. Further, the “TKcytotoxicity (TK-Ratio for cytotoxicity)” value in data set [2] (IC10 before/after aCYP oxidation) is given as 2.48 ± 0.69. Further, in data set [2] (setting [5]), the TKcytotoxicity was 2.48.
Turning to `CC(C)c1cc(C(C)(C)c2ccc(O)c(C(C)C)c2)ccc1O` [BPG, 2,2-Bis(4-hydroxy-3-isopropylphenyl)propane], the “EC10, linear” value (in data set [1]; in the data set on SH-SY5Y cells) was “no effect” throughout. The logEC10 entry (in data set [1]; in the data set on SH-SY5Y cells) was “no effect” throughout. In addition, the EC10 in the data set on SH-SY5Y cells (setting [4]) stood at 2.67e-05 M. In addition, the results for the TKcytotoxicity in data set [2] (setting [5]) and in data set [2] (setting [6]) were 0.62 and 0.67, respectively.
As for `Oc1ccc(C(c2ccc(O)cc2)(C(F)(F)F)C(F)(F)F)cc1` [BPAF, 4,4'-(1,1,1,3,3,3-Hexafluoropropane-2,2-diyl)diphenol], the “EC10, linear” value in data set [1] was “no effect”. In addition, the logEC10 entry in data set [1] was “no effect”. For the same compound, the EC10 in the data set with SH-SY5Y cells (read-out: EC10, NOI) is 1.62e-05 M; in the data set with SH-SY5Y cells (read-out: EC10, NOI (M)), 1.62e-05 M; in the data set with SH-SY5Y cells (read-out: EC10, linear), 1.93e-05 M; in the data set with SH-SY5Y cells (setting [4]) it was 2.61e-05 M; in the data set with SH-SY5Y cells (read-out: logEC10), 1.62e-05 M. In addition, the TKcytotoxicity in data set [2] (setting [5]) amounted to 1.14.
